US9205108B2, “Treatment of traumatic brain injury by using gallium compounds to reduce oxidative stress levels” (priority 2012, dated 2015)

Experiments:
[1] = system: protein carbonyls; assay: Protein carbonyl analysis (slot blot, 2,4-DNP) of whole brain homogenate after controlled cortical contusion; assay type: in vivo, C57BL/6NHsd mice; details: for Protein carbonyl: difference compared to control (sham): whole brain homogenate
Procedure: (§1) Twenty C57BL/6NHsd mice were used for a study. Mice were set into five groups: sham, 15 minutes saline, 15 minutes gallium, 30 minutes gallium, and 30 minutes saline. A moderate controlled cortical contusion was given to all animals except the four animals in the sham group. The 15 minutes gallium group was injected with 10 mg/kg gallium nitrate at 15 minutes post injury. The 15 minutes saline group was injected with saline at 15 minutes post injury. The 30 minutes gallium group was injected with 10 mg/kg gallium nitrate at 30 minutes post injury. The 30 minutes saline group was injected with saline at 30 minutes post injury. A sample size of 4 was used for each group except gallium nitrate treated samples at 15 minutes post injury (n=3), gallium nitrate treated samples at 30 minutes post injury (n=5), and saline treated animals at 30 minutes (n=3).
(§2) A gallium compound was delivered by injection, in particular, intraperitoneal injection. […] Due to this unequal pairing, statistics (Student's t-test) were performed using unpaired analysis. P values <0.05 were deemed significant. Western blots (slot blots) were run for all samples and immunoblotting was performed with the following antibodies 2,4-DNP (protein carbonyls) and anti-3-nitrotyrosine (protein nitration). All blots were run twice for reproducibility. All samples were compared to sham (craniotomy only, but no injury), which has been used as a baseline (control).
(§3) The two parameters for oxidative stress were run on whole brain homogenate using immunochemical detection.

[2] = system: 3-nitrotyrosine (3-NT); assay: Protein nitration analysis (slot blot, anti-3-nitrotyrosine) of whole brain homogenate after controlled cortical contusion; assay type: in vivo, C57BL/6NHsd mice; details: for Protein nitration (3-NT): difference compared to control (sham): whole brain homogenate
Procedure: as §1, §2, §3
Protein nitration is determined by indexing levels of 3-nitrotyrosine (3-NT). […] The difference between saline groups and the gallium groups at 30 minutes was statistically significant.

[3] = 100-300 mg/m²/day over 5-7 days; cited from earlier work
[4] = 10 mg/kg intraperitoneal injection at 15 minutes post injury
[5] = 10 mg/kg intraperitoneal injection at 30 minutes post injury

O=[N+]([O-])[O-].O=[N+]([O-])[O-].O=[N+]([O-])[O-].[Ga+3] [Gallium nitrate, gallium nitrate]
Protein carbonyl: difference compared to control (sham) [1, 4]: 17.5% reduction | Protein carbonyl: difference compared to control (sham) [1, 5]: 6.6% reduction | Oxidative stress (protein carbonyls), result in words ([1]; both time points (15 and 30 minutes post injury)): reduction in oxidative stress | Protein nitration (3-NT): difference compared to control (sham) [2, 4]: 61.3% increase | Protein nitration (3-NT): difference compared to control (sham) [2, 5]: 18.1% increase | Levels of 3-NT, result in words ([2]; treatment at 15 minutes post injury): increase in the levels of 3-NT | Levels of 3-NT, result in words ([2]; treatment at 30 minutes post injury, difference to saline group statistically significant): significant reduction in the levels of 3-NT | Reduction of calcium excretion [3]: 70+18%
